What is called IC50 is the point on the concentration scale where inhibition reaches its midpoint. A word on the Ki: it is a dissociation constant, usually derived from enzyme kinetics or from competition with a known ligand. A word on the inhibition: it is the percentage by which the read-out fell short of the control. The EC50 is the midpoint of the concentration-response curve. Low values mean greater potency, high ones weaker potency.

Several values for one entry are separate records, joined by “and”; a condition that tells them apart may be missing. Identical values can stand only once.

For the first assay, the target named is T1, Indoleamine 2,3-dioxygenase 1 (Homo sapiens, UniProt P14902). The experiment in a line: Inhibition of IDO1 (unknown origin).
Target sequence in this assay (P14902 whole entry): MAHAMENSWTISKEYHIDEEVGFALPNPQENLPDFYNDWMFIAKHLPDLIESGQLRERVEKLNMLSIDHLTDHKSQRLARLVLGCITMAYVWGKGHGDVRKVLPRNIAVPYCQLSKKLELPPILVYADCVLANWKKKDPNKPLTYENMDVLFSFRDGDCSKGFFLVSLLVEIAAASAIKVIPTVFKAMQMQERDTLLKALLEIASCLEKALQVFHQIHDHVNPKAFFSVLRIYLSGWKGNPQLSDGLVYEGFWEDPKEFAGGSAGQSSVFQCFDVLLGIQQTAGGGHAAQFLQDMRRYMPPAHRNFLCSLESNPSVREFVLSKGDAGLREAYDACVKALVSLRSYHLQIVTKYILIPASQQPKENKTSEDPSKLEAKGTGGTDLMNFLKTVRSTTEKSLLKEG
With `CS[C@@]1(C)C(=O)N2[C@H]3N(c4ccc5oc6cc(=O)c(N)c(C(=O)O)c-6nc5c4C(=O)O)c4ccccc4[C@@]3(c3c[nH]c4ccccc34)[C@H](O)[C@]2(SC)C(=O)N1C`, the IC50 stood at 2000 nM. On the same count and under the same terms, then `CNC(=O)[C@H]1[C@@H](OC)C2(O)c3ccccc3NC(=O)[C@@]2(C(=O)N[C@@H](CCC(=O)OC)C(=O)C=C(C)C)N1C` (some centres not stated), with 10100 nM. The same measure, in the same setting: then `COC1=C(OC)C(=O)C(CCC(C)C)=C(C)C1=O`, with 2800 nM; and `Nc1oc2cnccc2c1Nc1ccc(F)c(Cl)c1`, with less than 200 nM; and `COC1=C(OC)C(=O)C(Nc2ccccc2)=C(C)C1=O`, with 700 nM. As for `COC1=C(OC)C(=O)C(Nc2ccc(Cl)cc2)=CC1=O`, the midpoint of inhibition, the IC50, lay at 270 nM.

`COC1=CC(=O)c2c(O)c3c(c4c2[C@]12CC(=O)C[C@H]2[C@@]1(C[C@H](O)[C@H](O)CO1)O4)C[C@](C)(O)[C@H](O)C3` displayed an IC50 of 32300 nM. Still for that read-out and setting: for `O=C(Cc1ccccc1)Nc1ccc(CCOc2ccccc2-c2cnc[nH]2)cc1` the value was less than 1000 nM; for `COC1=C(OC)C(=O)C(Nc2ccccc2)=CC1=O`, 600 nM. On the same count and under the same terms, for `C=C1CC[C@@H]2[C@](C)(CO)[C@H](O)CC[C@@]2(C)[C@@H]1C/C=C1/C(=O)OC[C@H]1O` [ANDROGRAPHOLIDE] the value was 160000 nM. Same read-out and setting: then `COC(=O)[C@H]1CCCN1C[C@@H](O)c1c(OC)cc2c(c1O)C(=O)c1cc(O)c(C)cc1C2=O`, with 500 nM; and `CCc1c(OC)cc2c(c1O)C(=O)C[C@@H](OC)[C@@H]2O`, with 6360 nM. `COC1=C(OC)C(=O)C(Nc2cccc(NC(=O)Nc3ccccc3)c2)=C(C)C1=O` had an IC50 of 400 nM. With `COc1c(C(C)=O)c(C)cc2cc3c(c(O)c12)C(=O)C(C)(C)C(=O)C3(C)C`, the IC50 was found to be 1180 nM. Still for that read-out and setting: then `Brc1cc(Nc2ccc3nonc3c2)c2cn[nH]c2c1`, with 74000 nM.

The next assay concerns the target T1, Indoleamine 2,3-dioxygenase 1. Put plainly: Binding affinity to IDO1 (unknown origin) assessed as inhibition constant.
Target sequence in this assay (P14902 whole entry): as above
For `NC(Cc1csc2ccccc12)C(=O)O` (configuration not stated), the Ki is 7000 nM.

As to `CC12CCCc3coc(c31)C(=O)c1cc3c(cc12)C(=O)C1C(NCCS1(=O)=O)C3=O` (configuration not stated), the inhibitory constant (Ki) was 25 nM. On the same count and under the same terms, for `CC12CCCc3coc(c31)C(=O)c1cc3c(cc12)C(=O)C1NCCS(=O)(=O)C1C3=O` (configuration not stated) the value was 86 nM; for `CCc1c(C)cc2c(c1O)C(=O)C1=C(C2=O)C(C)(C)OC1(O)C(=O)OC` (configuration not stated), 210 nM. With `COC(=O)/C1=C/c2c([nH]c3ccccc23)/C(C(=O)OC)=C\c2c1[nH]c1ccccc21` [CAULERPIN], the Ki worked out at 2000 nM.

On to `NC(Cc1coc2ccccc12)C(=O)O` (configuration not stated), for which the Ki was found to be 70000 nM. On the same count and under the same terms, for `CCc1cc2c(cc1C)C(=O)C1=C(C2=O)C(OC)(C(=O)OC)OC1(C)C` (configuration not stated) the value was 140 nM.

Another assay has the same target. Put plainly: Inhibition of IDO1 (unknown origin) at 1 mM relative to control.
Target sequence in this assay (P14902 whole entry, looked up): as the sequence (P14902 whole entry) above
For `O=C(O)C[C@H]1CNC(=O)c2cc(Br)c(Br)n21`, the inhibition was 30%.

The target is the same in the next assay. The experiment in a line: Inhibition of human IDO1 incubated for 30 mins by microplate reader based analysis.
Target sequence in this assay (P14902 whole entry): as above
`COc1cc(O)c2c(c1)C(=O)C1=C(C2=O)[C@@H](C)O[C@@H](C)C1` came in with an IC50 of 5 µM.

The target is the same in the next assay. The experiment in a line: Inhibition of human recombinant IDO1 using L-tryptophan as substrate incubated for 10 mins by absorbance based analysis.
Target sequence in this assay (P14902 whole entry): as above
Consider `COc1nsc2c1C(=O)c1c(O)cccc1C2=O`, for which the IC50 worked out at 71 nM.

The target is the same in the next assay. Put plainly: Inhibition of IDO1 in human A549 cells by ELISA assay. It is filed as cell-based. (In general: ELISA stands for enzyme-linked immunosorbent assay.)
Target sequence in this assay (P14902 whole entry): as above
For the compound `CC(=O)NCCc1c(C(=O)c2ccccc2[N+](=O)[O-])[nH]c2ccc(Cl)cc12`, the IC50 was 740 nM.

The target is the same in the next assay. The experiment in a line: Inhibition of human IDO1 using L-tryptophan as substrate incubated for 1 hr by absorbance based analysis.
Target sequence in this assay (P14902 whole entry): as above
Turning to `O=C(NC(c1cccc(Br)c1)n1ccnc1)c1ccc([N+](=O)[O-])cc1` (configuration not stated), the IC50 came out at 810 nM.

For another assay the target is unchanged. The experiment in a line: Inhibition of human IDO1 using L-tryptophan as substrate by methylene blue dye based spectrometric method.
With `c1ccc(-c2[nH]nc3ccccc23)cc1`, half-maximal inhibition (IC50) required 19.6 µM.

On to `Cc1ccc(S(=O)(=O)NNC(=O)c2n[nH]c3ccccc23)cc1`, for which the IC50 was found to be 17 µM. Still for that read-out and setting: for `Clc1ccc(-c2n[nH]c3ccccc23)cc1Cl` the value was 5.46 µM. Still for that read-out and setting: for `O=C(NNc1ccccc1)c1n[nH]c2ccccc12` the value was 0.72 µM; for `c1cncc(-c2n[nH]c3ccccc23)c1`, 9.52 µM.

The target is the same in a further assay. Put plainly: Inhibition of IDO1 (unknown origin) at 10 uM relative to control.
Target sequence in this assay (P14902 whole entry, looked up): as the sequence (P14902 whole entry) above
In turn, `O[C@H]1CCCC[C@@H]1CNc1cc(Br)cc2[nH]ncc12` registered an inhibition of more than 70%.

For a further assay, the target named is T2, Indoleamine 2,3-dioxygenase 1 (Mus musculus, UniProt P28776). Put plainly: Inhibition of mouse IDO1 using L-tryptophan as substrate by methylene blue dye based analysis.
T2 sequence (P28776 whole entry): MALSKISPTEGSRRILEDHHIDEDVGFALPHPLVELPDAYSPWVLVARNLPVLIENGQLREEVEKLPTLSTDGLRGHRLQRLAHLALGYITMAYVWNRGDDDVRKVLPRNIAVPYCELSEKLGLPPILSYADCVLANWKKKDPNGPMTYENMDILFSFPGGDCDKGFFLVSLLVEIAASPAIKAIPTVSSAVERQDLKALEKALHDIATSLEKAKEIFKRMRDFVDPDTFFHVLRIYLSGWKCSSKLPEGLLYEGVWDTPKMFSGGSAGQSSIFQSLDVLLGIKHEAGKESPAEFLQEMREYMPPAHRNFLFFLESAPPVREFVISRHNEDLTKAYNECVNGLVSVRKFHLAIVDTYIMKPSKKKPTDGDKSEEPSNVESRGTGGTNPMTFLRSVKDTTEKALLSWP
On to `c1ccc(Nc2ccc3c[n+]4ccccc4cc3c2)cc1`, for which it took 0.56 µM to reach half-maximal inhibition (IC50). Turning to `Clc1cccc(Nc2ccc3c[n+]4ccccc4cc3c2)c1`, 39.6 µM corresponded to half-maximal inhibition (IC50). Turning to `COc1ccc(Nc2ccc3c[n+]4ccccc4cc3c2)cc1`, the IC50 is more than 66 µM. On the same count and under the same terms, for `Cc1ccc(Nc2ccc3c[n+]4ccccc4cc3c2)cc1` the value was 17 µM; for `Clc1ccc(Nc2ccc3c[n+]4ccccc4cc3c2)cc1`, 0.51 µM.

On to `Fc1ccc(Nc2ccc3c[n+]4ccccc4cc3c2)cc1`, for which half-maximal inhibition (IC50) required 0.53 µM. Still for that read-out and setting: for `CN(C)c1ccc(Nc2ccc3c[n+]4ccccc4cc3c2)cc1` the value was more than 50 µM.

The target in the next assay is T1, Indoleamine 2,3-dioxygenase 1. Put plainly: Inhibition of IDO1 in human HeLa cells. It is filed as cell-based.
The compound `N#Cc1ccc(NC(=O)Nc2ccc(S(=O)(=O)NNc3ccc(Br)cc3)cc2)cc1` registered an EC50 of 51 nM.

A further assay has the same target. Put plainly: Inhibition of human IDO1.
`N#Cc1ccc(NC(=O)Nc2ccc(S(=O)(=O)NNc3ccc(Br)cc3)cc2)cc1` returned an IC50 of 199 nM.

A further assay has the same target. Put plainly: Inhibition of human IDO1 expressed in Escherichia coli using L-tryptophan as substrate incubated for 30 mins by methylene blue dye based microplate reader analysis.
As to `COC1=CC(=O)c2c(oc(C)c2CO)C1=O`, the IC50 was found to be 500 nM. Same read-out and setting: for `COC1=CC(=O)c2c(c(CO)nn2C)C1=O` the value was 1000 nM; for `COC(=O)c1c(C)oc2c1C(=O)C(OC)=CC2=O`, 7200 nM.

For `COC1=CC(=O)c2c(c(CO)c(C)n2C)C1=O`, the IC50 came out at 10000 nM. Same read-out and setting: for `COC1=CC(=O)c2sc(C)c(CO)c2C1=O` the value was 1000 nM; for `COC1=CC(=O)c2c(nc(COc3ccc([N+](=O)[O-])cc3)n2C)C1=O`, 100 nM.

For the next assay the target is unchanged. The experiment in a line: Inhibition of IDO1 (unknown origin) at 1 uM relative to control.
Target sequence in this assay (P14902 whole entry, looked up): as the sequence (P14902 whole entry) above
Turning to `N#Cc1ccc(Cc2cn(Cc3cnc4scc(-c5ccc(Br)cc5)n34)nn2)cc1`, the inhibition amounted to 75%. In turn, `O=C(NCc1cnc2scc(-c3ccc(Br)cc3)n12)n1cc(C2CC2)nn1` gave an inhibition of 70%.

The target is the same in another assay. Put plainly: Inhibition of IDO1 in HEK293 cells at 20 uM incubated for 24 hrs by LC-MS/MS analysis relative to control. It is filed as cell-based.
Target sequence in this assay (P14902 whole entry, looked up): as the sequence (P14902 whole entry) above
For `O/N=C(\Nc1ccc(F)c(Br)c1)c1cccc2cn[nH]c12`, the inhibition was found to be 80%.

A further assay has the same target. The experiment in a line: Inhibition of human recombinant N-terminal his6-tagged IDO1 expressed in Escherichia coli BL21 using L-tryptophan as substrate incubated for 1 hr by methylene blue dye based UV-Vis spectrophotometer analysis.
For the compound `NS(=O)(=O)NCCNC(=O)c1n[nH]nc1/C(=N/O)Nc1ccc(F)c(Br)c1`, the IC50 was 92 nM and 28 nM.

The target is the same in another assay. The experiment in a line: Inhibition of IDO1 in human MDA-MB-231 cells. It counts as cell-based.
In the case of `NS(=O)(=O)NCCNC(=O)c1n[nH]nc1/C(=N/O)Nc1ccc(F)c(Br)c1`, the IC50 turned out to be 28 nM.

Another assay concerns the target T2, Indoleamine 2,3-dioxygenase 1. Put plainly: Inhibition of IDO1 in mouse LLTC cell line. It counts as cell-based.
`COc1ccc2c(c1)C(=O)C1=C(C2=O)[C@@H](C)O[C@@H](CC(=O)O)C1`: the IC50 stood at 0.8 µM. The compound `COc1cccc2c1C(=O)C1=C(C[C@H](Cn3cc(-c4ccccc4)nn3)O[C@@H]1C)C2=O` displayed an IC50 of 6 µM.

A further assay addresses T1, Indoleamine 2,3-dioxygenase 1. Put plainly: Inhibition of IDO1 in human HeLa cells assessed as inhibition of kynurenine production incubated for 30 mins by microplate reader based analysis. It counts as cell-based.
Take `Cc1cc(Cl)nc2onc(N)c12`: the IC50 was less than 1000 nM. As to `CCN(c1ncc(C2(C(=O)O)CCC2)cc1Nc1ccc(Cl)cc1)C1CCOCC1`, the IC50 stood at 100 nM.

Values taken from ChEMBL document CHEMBL5233260, “Diverse chemical space of indoleamine-2,3-dioxygenase 1 (Ido1) inhibitors” (Eur J Med Chem, 2021).
